Experimental data as given in US20240398764A1, “METHODS OF TREATING DISEASES ASSOCIATED WITH SENESCENT CELL ACCUMULATION” (University of Florida Research Foundation, Incorporated, priority 2021, published 2024).

How the values were obtained:
Bcl-2 = Bcl-2 (Homo sapiens, UniProt P10415); test: Immunoblot of Bcl-2 degradation in WI-38 fibroblast cells (Non-SnCs and IR-SnCs); format: cell-based; design: degradation of Bcl-xl and Bcl-2 in non-senescent WI-38 fibroblast cells (Non-SnCs) treated with varying concentrations of 753b; endogenous in cells; host or cells: WI-38 fibroblasts (non-senescent and ionizing-radiation-induced senescent); details: different concentrations, 16 h, dose-dependent
Chain of Bcl-2 (P10415 whole entry): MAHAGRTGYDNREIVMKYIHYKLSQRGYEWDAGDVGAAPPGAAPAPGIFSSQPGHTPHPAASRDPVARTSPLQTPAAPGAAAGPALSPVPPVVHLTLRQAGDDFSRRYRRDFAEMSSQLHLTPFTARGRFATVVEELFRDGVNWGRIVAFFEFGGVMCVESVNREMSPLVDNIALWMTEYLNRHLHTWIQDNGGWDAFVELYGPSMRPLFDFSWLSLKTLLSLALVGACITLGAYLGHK
Description: FIG. 2A depicts immunoblots showing degradation of Bcl-xl and Bcl-2 in non-senescent WI-38 fibroblast cells (Non-SnCs) treated with varying concentrations of 753b. 3-actin was used as a loading control. FIG. 2B depicts viability of Non-SnCs treated with varying concentrations of 753b or ABT263. FIG. 2C depicts immunoblots showing degradation of Bcl-xl and Bcl-2 in ionizing radiation-induced senescent WI-38 fibroblast cells (IR-SnCs) treated with varying concentrations of 753b. 3-actin was used as a loading control. FIG. 2D depicts viability of IR-SnCs treated with varying concentrations of 753b or ABT263. FIG. 2E depicts immunoblots showing degradation of Bcl-xl and Bcl-2 in human platelets treated with varying concentrations of 753b. FIG. 2F depicts viability of human platelets treated with varying concentrations of 753b or ABT263.
The potency of 753b in degrading Bcl-xl/2 was evaluated by immunoblots after the cells or platelets were treated with different concentrations of 753b for 16 h ([…]). 753b is more cytotoxic to IR-SnCs but less toxic to Non-SnCs and platelets. The viability of Non-SnCs, IR-SnCs and platelets was measured 72 hr (Non-SnCs and IR-SnCs) and 48 hr (platelets) after they were incubated with increasing concentrations of 753b or ABT263 compared to cells/platelets with vehicle.

[1] = Body conditions and insulin tolerance test in the STAM model; format: in vivo, C57BL6 mice; details: STZ/HFD mice; 5 mg/kg twice a week IP; postnatal day 150
Experimental: FIG. 8A is an image showing body condition of STZ/HFD mice treated with vehicle control or 753b. FIG. 8B depicts blood glucose (mg/dL) levels versus time after intraperitoneal injection of insulin in STZ/HFD mice treated with vehicle control or 753b. Data were means±SD from 5 mice per group. *p<0.05.
(§1) Experimental design: C57BL6 mice were injected with Streptozotocin (STZ) at postnatal day 2 to induce diabetes and then fed with HFD from postnatal day 30 till the end of the experiments (FIG. 5). Half of the mice started receiving vehicle and the others receiving 753b (5 mg/kg) treatment on postnatal day 45 twice a week by IP injection till the end of the experiments. A group of the mice were euthanized at postnatal day 90 (or day 45 after the initiation of the treatment) for analysis of senescent cell accumulation and steatosis. Another group of the mice were euthanized at postnatal day 150 (or day 105 after the initiation of the treatment) for analysis of liver fibrosis and cancer.
753b administration improves body conditions and ameliorates the development of insulin resistance in the STAM model. All the analyses were done in mice at postnatal day 150 (p150 or 105 days after treatment).

[2] = Tumorigenesis in the STAM model (MRI); format: in vivo, C57BL6 mice; details: STZ/HFD mice; 5 mg/kg twice a week IP; postnatal day 150
Experimental: FIG. 10A depicts images of livers of STZ/HFD mice treated with vehicle control or 753b (top) and MRIs of T1 pre-contrast and T2-weighted images of corresponding livers (bottom). Tumor lesions are indicated by yellow arrows. […] FIG. 10C depicts a Western blot of Gpc3 in livers of STZ/HFD mice treated with vehicle control or 753b. Actin was used as a loading control.
Experimental design: C57BL6 mice were injected with Streptozotocin (STZ) at postnatal day 2 to induce diabetes and then fed with HFD from postnatal day 30 till the end of the experiments (FIG. 5). Half of the mice started receiving vehicle and the others receiving 753b (5 mg/kg) treatment on postnatal day 45 twice a week by IP injection till the end of the experiments. […]
All the analyses were done in mice at postnatal day 150 (p150 or 105 days after treatment). […] Tumor lesions were determined based on hypointense signals in T1 but hyperintense signals in T2-weighted image (FIG. 10A). Tumor number and volume was quantified based on MRI T1 and T2-weighted images. Values were expressed as means±SD from 5 mice per group. Data for each mouse were analyzed based on 5-6 slices of images that covered whole liver lobes (FIG. 10B). […] Quantification analysis was performed for the ratio between liver and body weight in the STZ/HFD treated livers that were exposed to 753b or control compound (FIG. 10D). […]

[3] = Myofibroblast cell activation and liver fibrosis in the STAM model; format: in vivo, C57BL6 mice; details: STZ/HFD mice, 5 mg/kg twice a week IP, postnatal day 150
Experimental: FIG. 9A depicts relative change in aSMA, Procollagen-1, Tgf-β, Ctgf, and Pdgf-β genes in livers of STZ/HFD mice treated with vehicle control or 753b. Data were means±SD of triplicate experiments. *p<0.05. […] Scale bar: […]. […] Actin was used as a loading control. FIG. 9D depicts hydroxyproline (μg/g) levels in the liver of STZ/HFD mice treated with vehicle control or 753b. *p<0.05.
as §1
753b administration inhibits myofibroblast cell activation and liver fibrosis in the STAM model. All the analyses were done in mice at postnatal day 150 (p150 or 105 days after treatment). […] Quantification was performed from 5 livers per group and was expressed as means±SD.

[4] = Hepatic fat accumulation in the STAM model (oil red staining, hepatic triglyceride); format: in vivo, C57BL6 mice; details: STZ/HFD mice; 5 mg/kg twice a week IP; postnatal day 90
Experimental: Scale bar: […]. FIG. 7B depicts percentage of oil red^+ area/field of the images depicted in FIG. 7A. Values represented means±SD. *p<0.05. […] Values represented means±SD. *p<0.05.
as §1
753b administration represses hepatic fat accumulation in the STAM model. The liver tissues were collected from mice at postnatal day 90 (p90 or 45 days after treatment) for the analyses. […] Quantification of oil red stained images was performed from 5 livers per group (FIG. 7B). […] Quantification was performed from 5 livers per group and was expressed as means±SD.

For `Cc1ncsc1-c1ccc([C@H](C)NC(=O)[C@@H]2C[C@@H](O)CN2C(=O)[C@@H](NC(=O)CCCCCCC(=O)N2CCN(C[C@]3(C)CCC(c4ccc(Cl)cc4)=C(CN4CCN(c5ccc(C(=O)NS(=O)(=O)c6ccc(N[C@H](CCN7CCOCC7)CSc7ccccc7)c(S(=O)(=O)C(F)(F)F)c6)cc5)CC4)C3)CC2)C(C)(C)C)cc1` [Compound 753b], which “Bcl-2 degradation in IR-SnCs” value (Bcl-2; IR-induced senescent WI-38 fibroblast cells) is on record?
The value was “degrades Bcl-xl and Bcl-2 in Non-SnCs and IR-SnCs”.

What about the “Bcl-2 degradation in Non-SnCs” value (Bcl-2; non-senescent WI-38 fibroblast cells) of the same molecule?
The value was “degrades Bcl-xl and Bcl-2 in Non-SnCs and IR-SnCs”.

And the “Body conditions (dehydration and dampen hair)” value [1]?
Its value is “prevented the development of abnormal body conditions”.

And the “Insulin resistance (intraperitoneal injected insulin tolerance test)” value [1]?
Its value is “prevented insulin resistance”.

What about the “Tumorigenesis in the liver” value [2] of the same molecule?
The value was “reduces tumorigenesis”.

What about the “Collagen level in livers (hepatic hydroxyproline assay)” value [3] of the same molecule?
Its value is “decreased levels of collagen”.

And the “Liver fibrosis (aSMA immunofluorescent staining and sirius red staining)” value [3]?
Its value is “prevented liver fibrosis”.

And the “aSMA and pro-collagen type I protein levels in livers (Western blotting)” value [3]?
The value was “low levels of aSMA and pro-collagen type I proteins”.

And the “Levels of fibrosis-related genes in livers (Q-RT-PCR)” value ([3]; vs controls)?
The value was “lower levels of fibrosis-related genes”.

What about the “Hepatic fat accumulation (oil red staining)” value [4] of the same molecule?
The value was “inhibited hepatic fat accumulation”.

What about the Hepatic triglyceride level [4] of the same molecule?
Its Hepatic triglyceride level is “decreased levels of hepatic triglyceride”.
